The term EC50 denotes the concentration at which the effect is half-maximal.

In US8906929B2, “Inhibitors of human immunodeficiency virus replication” (priority 2012, dated 2014) one finds EC50 data, which are given here for 20 compounds.

Structures are written as SMILES.

The assay has as its system recombinant NL-Rluc virus. Put plainly: Inhibition of HIV replication (NL-RLuc virus in MT-2 cells, luciferase readout). The format is cell-based. Particulars: Human immunodeficiency virus 1, MT2, 120 h, 5 days of incubation, 10% FBS.
For `Cc1ccc2c(c1)-c1cccc(c1)-c1cc3nc(C)c([C@H](OC(C)(C)C)C(=O)O)c(n3n1)N1CCC(C)(CC1)OCCCC[C@H](C)O2` [Example 55, (2S)-2-(tert-Butoxy)-2-[(22S)-4,17,22,28-tetramethyl-21,27-dioxa-1,5,7,8-tetraazahexacyclo[26.2.2.1^6,^9.1^10,^14.0^2,^7.0^15,^20]tetratriaconta-2,4,6(34), 8, 10(33), 11, 13, 15 (20),16,18-decaen-3-yl]acetic acid], the EC50 came to 14 nM.
As to `Cc1nc2cc3nn2c(c1[C@H](OC(C)(C)C)C(=O)O)N1CCC(C)(CC1)OCC=C[C@@H](C)Oc1ccncc1-c1cccc-3c1` [Example 56, (2S)-2-(tert-Butoxy)-2-[(22R)-4,22,27-trimethyl-21,26-dioxa-1,5,7,8,17-pentaazahexacyclo[25.2.2.1^6,^9.1^10,^14.0^2,^7.0^15,^20]tritriaconta-2,4,6(33),8,10(32), 11, 13, 15 (20),16,18,23-undecaen-3-yl]acetic acid], the half-maximal effective concentration (EC50) was determined as 351 nM.
For `Cc1nc2cc3nn2c(c1[C@H](OC(C)(C)C)C(=O)O)N1CCC(C)(CC1)OCC=C[C@H](C)Oc1ccncc1-c1cccc-3c1` [Example 57, (2S)-2-(tert-Butoxy)-2-[(22S)-4,22,27-trimethyl-21,26-dioxa-1,5,7,8,17-pentaazahexacyclo[25.2.2.1^6,^9.1^10,^14.0^2,^7.0^15,^20]tritriaconta-2,4,6(33),8,10(32), 11, 13, 15(20),16,18,23-undecaen-3-yl]acetic acid] the value was 300 nM; for `Cc1ccc2c(c1)-c1cccc(c1)-c1cc3nc(C)c([C@H](OC(C)(C)C)C(=O)O)c(n3n1)N1CCC(C)(CC1)OCC=C[C@@H](C)O2` [Example 58, (2S)-2-(tert-Butoxy)-2-[(22R)-4,17,22,2,7-tetramethyl-21,26-dioxa-1,5,7,8-tetraazahexacyclo[25.2.2.1^6,^9.1^10,^14.0^2,^7.0^15,^20]tritriaconta-2,4,6(33),8,10(32),11,13,15(20),16,18,23-undecaen-3-yl]acetic acid], 74 nM.
In the case of `Cc1ccc2c(c1)-c1cccc(c1)-c1cc3nc(C)c([C@H](OC(C)(C)C)C(=O)O)c(n3n1)N1CCC(C)(CC1)OCC=C[C@H](C)O2` [Example 59, (2S)-2-(tert-Butoxy)-2-[(22S)-4,17,22,27-tetramethyl-21,26-dioxa-1,5,7,8-tetraazahexacyclo[25.2.2.1^6,^9.1^10,^14.0^2,^7.0^15,^20]tritriaconta-2,4,6(33),8,10(32),11,13,15(20),16,18,23-undecaen-3-yl]acetic acid] it was 8 nM.
In the case of `Cc1ccc2c(c1)-c1cccc(c1)-c1cc3nc(C)c([C@H](OC(C)(C)C)C(=O)O)c(n3n1)N1CCC(C)(CC1)OCCC[C@@H](C)O2` [Example 60, (2S)-2-(tert-Butoxy)-2-[(22R)-4,17,22,2,7-tetramethyl-21,26-dioxa-1,5,7,8-tetraazahexacyclo[25.2.2.1^6,^9.1^10,^14.0^2,^7.0^15,^20]tritriaconta-2,4,6(33),8,10(32),11,13,15(20),16,18-decaen-3-yl]acetic acid] it was 84 nM.
Consider `Cc1ccc2c(c1)-c1cccc(c1)-c1cc3nc(C)c([C@H](OC(C)(C)C)C(=O)O)c(n3n1)N1CCC(C)(CC1)OCCC[C@H](C)O2` [Example 61, (2S)-2-(tert-Butoxy)-2-[(22S)-4,17,22,27-tetramethyl-21,26-dioxa-1,5,7,8-tetraazahexacyclo[25.2.2.1^6,^9.1^10,^14.0^2,^7.0^15,^20]tritriaconta-2,4,6(33),8,10(32),11,13,15(20),16,18-decaen-3-yl]acetic acid], for which the 50% effective concentration (EC50) was 10 nM.
As to `Cc1nc2cc3nn2c(c1[C@H](OC(C)(C)C)C(=O)O)N1CCC(C)(CC1)OCC=CCOc1ccc(F)cc1-c1cccc-3c1` [Example 62], the half-maximal effective concentration (EC50) came out at 7 nM.
As for `Cc1nc2cc3nn2c(c1[C@H](OC(C)(C)C)C(=O)O)N1CCC(C)(CC1)OCCCCOc1ccc(F)cc1-c1cccc-3c1` [Example 63, (2S)-2-(tert-Butoxy)-2-{17-fluoro-4,27-dimethyl-21,26-dioxa-1,5,7,8-tetraazahexacyclo[25.2.2.1^6,^9.1^10,^14.0^2,^7.0^15,^20]tritriaconta-2,4,6(33),8,10(32),11,13,15(20),16,18-decaen-3-yl}acetic acid], the 50% effective concentration (EC50) worked out at 7 nM.
For `Cc1ccc2c(c1)-c1cccc(c1)-c1cc3nc(C)c([C@H](OC(C)(C)C)C(=O)O)c(n3n1)N1CCC(C)(CC1)OCC=CCC[C@H](C)O2` [Example 64, (2S)-2-(tert-Butoxy)-2-[(22S)-4,17,22,29-tetramethyl-21,28-dioxa-1,5,7,8-tetraazahexacyclo[27.2.2.1^6,^9.1^10,^14.0^2,^7.0^15,^20]pentatriaconta-2,4,6(35),8,10(34), 11, 13, 15(20),16,18,25-undecaen-3-yl]acetic acid], the 50% effective concentration (EC50) amounted to 26 nM.
In the case of `Cc1cc2c(cc1Cl)O[C@@H](C)CC=CCOC1(C)CCN(CC1)c1c([C@H](OC(C)(C)C)C(=O)O)c(C)nc3cc(nn13)-c1cccc-2c1` [Example 66, (2S)-2-(tert-Butoxy)-2-[(22S)-18-chloro-4,17,22,28-tetramethyl-21,27-dioxa-1,5,7,8-tetraazahexacyclo[26.2.2.1^6,^9.1^10,^14.0^2,^7.0^15,^20]tetratriaconta-2,4,6(34),8,10(33), 11, 13, 15(20),16,18,24-undecaen-3-yl]acetic acid] it was 43 nM; in that of `Cc1cc2c(cc1Cl)O[C@@H](C)CCCCOC1(C)CCN(CC1)c1c([C@H](OC(C)(C)C)C(=O)O)c(C)nc3cc(nn13)-c1cccc-2c1` [Example 67, (2S)-2-(tert-butoxy)-2-[(22S)-18-chloro-4,17,22,28-tetramethyl-21,27-dioxa-1,5,7,8-tetraazahexacyclo[26.2.2.1^6,^9.1^10,^14.0^2,^7.0^15,^20]tetratriaconta-2,4,6(34),8,10(33), 11, 13, 15 (20),16,18-decaen-3-yl]acetic acid], 109 nM.
For `Cc1ccc2c(c1F)-c1cccc(c1)-c1cc3nc(C)c([C@H](OC(C)(C)C)C(=O)O)c(n3n1)N1CCC(C)(CC1)OC/C=C/C[C@H](C)O2` [Example 68, (2S)-2-(tert-Butoxy)-2-[(22S,^24E)-16-fluoro-4,17,22,28-tetramethyl-21,27-dioxa-1,5,7,8-tetraazahexacyclo[26.2.2.1^6,^9.1^10,^14. 0^2,^7.0^15,^20]tetratriaconta-2,4,6(34),8,10(33), 11, 13, 15 (20), 16,18,24-undecaen-3-yl]acetic acid] the value was 9 nM.
As to `Cc1ccc2c(c1F)-c1cccc(c1)-c1cc3nc(C)c([C@H](OC(C)(C)C)C(=O)O)c(n3n1)N1CCC(C)(CC1)OC/C=C\C[C@H](C)O2` [Example 69, (2S)-2-(tert-Butoxy)-2-[(22S,24Z)-16-fluoro-4,17,22,28-tetramethyl-21,27-dioxa-1,5,7,8-tetraazahexacyclo[26.2.2.1^6,^9.1^10,^14.0^2,^7.0^15,^20]tetratriaconta-2,4,6(34),8,10(33), 11, 13, 15 (20),16,18,24-undecaen-3-yl]acetic acid], the 50% effective concentration (EC50) came to 21 nM.
For `Cc1ccc2c(c1F)-c1cccc(c1)-c1cc3nc(C)c([C@H](OC(C)(C)C)C(=O)O)c(n3n1)N1CCC(C)(CC1)OCCCC[C@H](C)O2` [Example 70, (2S)-2-(tert-Butoxy)-2-[(22S)-16-fluoro-4,17,22,28-tetramethyl-21,27-dioxa-1,5,7,8-tetraazahexacyclo[26.2.2.1^6,^9.1^10,^14.0^2,^7.0^15,^20]tetratriaconta-2,4, 6(34), 8, 10(33), 11, 13, 15(20),16,18-decaen-3-yl]acetic acid] the value was 19 nM.
In the case of `Cc1nc2cc3nn2c(c1[C@H](OC(C)(C)C)C(=O)O)N1CCC(C)(CC1)OCC=CC[C@H](C)Oc1ccc(C(N)=O)cc1-c1cccc-3c1` [Example 72, (2S)-2-(tert-Butoxy)-2-[(22S)-17-carbamoyl-4,22,27-trimethyl-21,26-dioxa-1,5,7,8-tetraazahexacyclo[25.2.2.1^6,^9.1^10,^14.0^2,^7.0^15,^20]tritriaconta-2,4, 6(33), 8, 10(32), 11, 13, 15(20),16,18,23-undecaen-3-yl]acetic acid] it was 15 nM; in that of `Cc1nc2cc3nn2c(c1[C@H](OC(C)(C)C)C(=O)O)N1CCC(C)(CC1)OCCCC[C@H](C)Oc1ccc(C#N)cc1-c1cccc-3c1` [Example 73, (2S)-2-(tert-Butoxy)-2-[(22S)-17-cyano-4,22,28-trimethyl-21,27-dioxa-1,5,7,8-tetraazahexacyclo[26.2.2.1^6,^9.1^10,^14.0^2,^7.0^15,^20]tetratriaconta-2,4,6(34),8,10(33), 11, 13, 15(20),16,18-decaen-3-yl]acetic acid], 6 nM.
For `Cc1ccc2c(c1)O[C@@H](C)CCCCOC1(C)CCN(CC1)c1c([C@H](OC(C)(C)C)C(=O)O)c(C)nc3cc(nn13)-c1cccc-2c1` [Example 74, (2S)-2-(tert-Butoxy)-2-[(22S)-4,18,22,28-tetramethyl-21,27-dioxa-1,5,7,8-tetraazahexacyclo[26.2.2.1^6,^9.1^10,^14.0^2,^7.0^15,^20]tetratriaconta-2,4,6(34),8,10(33),11,13,15(20),16,18-decaen-3-yl]acetic acid] the value was 36 nM; for `Cc1cc2c(cc1C)-c1cccc(c1)-c1cc3nc(C)c([C@H](OC(C)(C)C)C(=O)O)c(n3n1)N1CCC(C)(CC1)OCC=CC[C@H](C)O2` [Example 75, (2S)-2-(tert-Butoxy)-2-[(22S)-4,17,18,22,28-pentamethyl-21,27-dioxa-1,5,7,8-tetraazahexacyclo[26.2.2.1^6,^9.1^10,^14.0^2,^7.0^15,^20]tetratriaconta-2,4,6(34),8,10(33), 11, 13, 15 (20),16,18,24-undecaen-3-yl]acetic acid], 34 nM; for `Cc1cc2c(cc1C)-c1cccc(c1)-c1cc3nc(C)c([C@H](OC(C)(C)C)C(=O)O)c(n3n1)N1CCC(C)(CC1)OCCCC[C@H](C)O2` [Example 76, (2S)-2-(tert-Butoxy)-2-[(22S)-4,17,18,22,28-pentamethyl-21,27-dioxa-1,5,7,8-tetraazahexacyclo[26.2.2.1^6,^9.1^10,^14.0^2,^7.0^15,^20]tetratriaconta-2,4,6(34),8,10(33),11,13,15(20),16,18-decaen-3-yl]acetic acid], 29 nM.
